Article PMC10283052, “Intranasal delivery of mitochondrial protein humanin rescues cell death and promotes mitochondrial function in Parkinson's disease” (Theranostics, 2023)

Key:
[1] = test system: midbrain dopaminergic neurons from embryonic mouse; test: HN-induced intracellular humanin expression, western blot, primary neurons; format: cell-based; conditions: HN treatment 24 h (1 μM in Fig 2A), basal humanin undetectable
Method: (§1) Primary mesencephalic cell cultures were prepared using gestational day 13.5 embryos from C57BL/6J mice, as previously described. The mesencephalon was dissected from the embryos and dissociated in a medium containing 0.25% trypsin-EDTA and 0.05% DNase in PBS for 15 min at 37 °C. Tissue samples were mechanically dissociated by gentle pipetting using Pasteur pipettes. After centrifugation at 400 x g for 5 min, the cells were plated in Neurobasal-A medium (Thermo Fisher Scientific, Waltham, MA, USA) supplemented with 2% B27 supplement (Thermo Fisher Scientific), 1× Glutamax (Thermo Fisher Scientific), 5% fetal bovine serum (FBS), 0.36% D-glucose, and 1% Penicillin/Streptomycin (P/S) in poly-L-ornithine/laminin (Sigma-Aldrich)-coated plates. On day 4 in vitro (DIV), the plating medium was replaced, and the neurons were used on DIV 8 for subsequent experiments.
For HN treatment of cells, HN stock solution was first incubated at 37 ℃ with mild stirring for 0.5 h. The solution was then added to the culture medium to achieve a desirable final concentration as described above.
Mouse brain tissue samples and cells were homogenized in radioimmunoprecipitation assay (RIPA) buffer (Cell Signaling, Danvers, MA, USA) in the presence of a protease and phosphatase inhibitor cocktail (Thermo Fisher Scientific). […] The results were analyzed using the ImageJ densitometry system. […]

[2] = test system: SH-SY5Y cells; test: Real-time qPCR of mitochondrial rRNA and humanin transcripts; format: cell-based, human
Method: For real-time qPCR, total RNA was extracted using TRIzol reagent (Thermo Fisher Scientific). cDNA was synthesized using a cDNA synthesis kit (Bioneer Corporation), according to the manufacturer's protocol. The mRNA levels were analyzed in a LightCycler 96 (Roche, Basel, Switzerland) using SYBR Green I master mix and SensiFAST™ SYBR® No-ROX Kit (Bioline, Paris, France). B2M (beta-2-microglobulin) gene expression was used to normalize gene expression data. The primer sequences used in this experiment are in Table S2.

[3] = test system: mtDNA-depleted (Rho^0) SH-SY5Y cells; test: Humanin induction in mtDNA-depleted Rho0 cells (PCR, western blot); format: cell-based, human; conditions: Rho0 cells devoid of mtDNA; HN 20 μM, 24 h; conventional PCR and western blot
Method: For generating SH-SY5Y Rho^0 cells depleted of mitochondrial DNA, we treated the cells with ethidium bromide (0.5 μg/ml) (Sigma-Aldrich) for 2 months as described previously. SH-SY5Y Rho^0 cells were grown in the same culture medium but supplemented with an additional 50 μg/ml of uridine and 100 μg/ml of pyruvate to support cell growth.
Mouse brain tissue samples and cells were homogenized in radioimmunoprecipitation assay (RIPA) buffer (Cell Signaling, Danvers, MA, USA) in the presence of a protease and phosphatase inhibitor cocktail (Thermo Fisher Scientific). The samples were sonicated on ice, and the supernatant was collected after centrifugation at 4°C at 10,000 g for 5 min. The protein samples were loaded and separated using Tris-glycine SDS-PAGE. To detect the HN peptide, the proteins were separated into three layers of tricine SDS-PAGE, as previously described. The separated proteins were transferred to nitrocellulose membranes (GenDEPOT, Barker, TX, USA). The membranes were blocked for 0.5 h, followed by incubation with appropriate primary antibodies overnight at 4°C. […] The results were analyzed using the ImageJ densitometry system. […]
The loss of mtDNA in SH-SY5Y Rho^0 cells was determined by standard PCR with three pairs of primers (Table S1), two specifically for mtDNA (mt-ND4, humanin) and one specifically for nuclear DNA (ATP5PB). […]

[4] = test system: Murine primary dopaminergic neurons; test: MPP+ toxicity in primary dopaminergic neurons (MTT, neurite analysis); format: cell-based, mouse
Method: as §1
Following treatment with the aforementioned reagents, the cells were washed and treated with 3-(4,5-dimethylthiazol-2-yl)-2,5-diphenyl-tetrazolium bromide (MTT, Thermo Fisher Scientific). Briefly, the cells were seeded in a 96-well plate at a density of 5 × 10^3 cells/well. After 24 h, a neurotoxin 1-methyl-4-phenylpyridinium (MPP^+) (Sigma-Aldrich) was applied to induce toxicity in neuronal cells. Next, the cells were incubated with MTT for 4 h, and formazan crystals were solubilized using DMSO. Absorbance was measured using a multi-plate reader at a wavelength of 570 nm, and the viability of the cells was recorded as a percentage of the control.

[5] = HN pre-treatment 12 h, then MPP+ 100 μM 24 h, dose-dependent

“humanin (MAPRGFSCLLLLTSEIDLPVKRRA; Humanin; UniProt Q8IVG9 1-24, looked up) [HN, mitochondria-derived peptide encoded by the mitochondrial genome, synthesized by Fmoc-based SPPS at GL Biochem]” was tested, and the intracellular humanin expression [1] was “induced its intracellular expression in a dose-dependent manner”, the “transcript levels of regions across mitochondrial rRNA and humanin” value ([2]; up to 24 h after HN treatment, slightly declined over time) was “significantly upregulated up to 24 h” and the “transcript levels of regions across mitochondrial rRNA and humanin” value ([2]; within 3 h of HN treatment) was “significant upregulation”. The “induction of intracellular humanin by HN peptide” value [3] was “abolished”, the neurite number ([4]; HN 1 μM versus DMSO) was “increased neurite number” and the “neurite loss induced by MPP+” value [4, 5] was “rescued the neurite loss and neuronal death”. The “neuronal death induced by MPP+ (viability, MTT)” value [4, 5] was “rescued the neurite loss and neuronal death” and the “average length of all sprouting neurites per neuron” value ([4]; HN-treated versus DMSO-treated neurons, slightly higher) was “not statistically significant”.
